Measurements taken from ChEMBL document CHEMBL1201862, “PubChem BioAssay data set” (2004).
One block for each compound: values may come before it. Activity calls are given as the source filed them.

Columns and labels:
[1] = Luminescence Cell-Based Dose Retest to Confirm Inhibitors of Cancer Stem Cells. [Related pubchem assays (depositor defined):AID2717, AID2721]; format: functional; settings: Homo sapiens
[2] = viability loss of HMLE_sh_eGFP cells – cell-based, luminescence, counter-screen for HMLE_sh_ECad selective toxicity project, dose response (AID 463074); format: functional, Homo sapiens;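 note: HMLE human mammary epithelial cells expressing control shRNA against eGFP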
[3] = target: FAD-linked sulfhydryl oxidase ALR (Homo sapiens, UniProt P55789); assay: ALR-catalysed DTT oxidation blockers – biochemical, H2O2 detection, luminescence, cherry-pick, dose response (AID 493248)
Chain of FAD-linked sulfhydryl oxidase ALR (P55789 whole entry): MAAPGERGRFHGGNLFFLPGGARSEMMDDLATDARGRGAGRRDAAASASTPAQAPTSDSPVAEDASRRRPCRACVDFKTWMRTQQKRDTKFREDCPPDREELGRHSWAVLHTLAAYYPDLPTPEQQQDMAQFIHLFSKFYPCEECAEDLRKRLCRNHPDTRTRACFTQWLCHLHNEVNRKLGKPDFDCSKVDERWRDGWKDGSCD

[4] = target: Matrix metalloproteinase-14 (Homo sapiens, UniProt P50281); assay: Dose Response confirmation of uHTS hits for a small molecule inhibitors of MT1-MMP activation in a fluorescence assay set 2.; format: functional
[5] = target: T1, Tyrosine-protein phosphatase non-receptor type 7 (Homo sapiens, UniProt P35236); format: functional
T1 sequence (P35236 whole entry): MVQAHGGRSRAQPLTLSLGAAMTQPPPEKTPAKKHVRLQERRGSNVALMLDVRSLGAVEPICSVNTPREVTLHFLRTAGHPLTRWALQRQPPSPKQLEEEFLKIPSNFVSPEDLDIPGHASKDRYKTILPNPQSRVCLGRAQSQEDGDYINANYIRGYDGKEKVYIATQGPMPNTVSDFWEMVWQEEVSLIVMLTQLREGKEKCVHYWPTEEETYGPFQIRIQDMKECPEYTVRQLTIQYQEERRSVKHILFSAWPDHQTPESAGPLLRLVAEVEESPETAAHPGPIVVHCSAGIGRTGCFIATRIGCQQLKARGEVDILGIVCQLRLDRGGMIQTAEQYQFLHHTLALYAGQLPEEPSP

[6] = target: Glyceraldehyde-3-phosphate dehydrogenase (Homo sapiens, UniProt P04406)
Chain of Glyceraldehyde-3-phosphate dehydrogenase (P04406 whole entry): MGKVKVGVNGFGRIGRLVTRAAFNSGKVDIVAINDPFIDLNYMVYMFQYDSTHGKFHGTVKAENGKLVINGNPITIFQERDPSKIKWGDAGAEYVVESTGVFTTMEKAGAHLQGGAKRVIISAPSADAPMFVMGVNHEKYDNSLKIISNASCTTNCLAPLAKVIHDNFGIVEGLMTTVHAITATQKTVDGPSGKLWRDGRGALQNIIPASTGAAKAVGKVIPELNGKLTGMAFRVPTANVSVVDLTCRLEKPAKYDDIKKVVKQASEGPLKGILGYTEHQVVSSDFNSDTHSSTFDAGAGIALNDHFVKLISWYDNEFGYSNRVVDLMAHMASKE

[7] = target: Heat shock cognate 71 kDa protein (Homo sapiens, UniProt P11142); assay: In Vitro Hsc70 Dose Response Fluorescence Polarization Assay. [Related pubchem assays: 1072 ]
Chain of Heat shock cognate 71 kDa protein (P11142 whole entry): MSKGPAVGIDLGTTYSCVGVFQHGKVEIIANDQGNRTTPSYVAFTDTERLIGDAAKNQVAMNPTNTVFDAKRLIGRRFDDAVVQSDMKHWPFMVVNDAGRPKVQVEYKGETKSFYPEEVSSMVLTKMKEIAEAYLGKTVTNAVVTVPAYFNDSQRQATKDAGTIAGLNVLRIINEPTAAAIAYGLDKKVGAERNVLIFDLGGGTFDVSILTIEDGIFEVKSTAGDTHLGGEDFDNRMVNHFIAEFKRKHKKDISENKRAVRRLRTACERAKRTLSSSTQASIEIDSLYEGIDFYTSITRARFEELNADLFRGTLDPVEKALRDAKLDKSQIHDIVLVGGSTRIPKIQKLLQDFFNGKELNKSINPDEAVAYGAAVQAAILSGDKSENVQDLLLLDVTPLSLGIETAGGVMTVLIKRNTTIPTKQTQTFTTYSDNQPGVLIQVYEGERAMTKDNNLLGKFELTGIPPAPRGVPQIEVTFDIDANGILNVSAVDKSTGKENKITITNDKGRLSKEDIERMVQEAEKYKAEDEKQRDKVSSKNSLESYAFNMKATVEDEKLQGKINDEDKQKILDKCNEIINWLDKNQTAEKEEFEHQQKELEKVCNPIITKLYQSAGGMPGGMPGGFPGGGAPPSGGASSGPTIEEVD

[8] = target: Heat shock 70 kDa protein 1A (Homo sapiens, UniProt P0DMV8); assay: inhibition of Hsp70 binding activity – biochemical, fluorescence polarization, SAR follow-up (AID 1072)
Chain of Heat shock 70 kDa protein 1A (P0DMV8 whole entry): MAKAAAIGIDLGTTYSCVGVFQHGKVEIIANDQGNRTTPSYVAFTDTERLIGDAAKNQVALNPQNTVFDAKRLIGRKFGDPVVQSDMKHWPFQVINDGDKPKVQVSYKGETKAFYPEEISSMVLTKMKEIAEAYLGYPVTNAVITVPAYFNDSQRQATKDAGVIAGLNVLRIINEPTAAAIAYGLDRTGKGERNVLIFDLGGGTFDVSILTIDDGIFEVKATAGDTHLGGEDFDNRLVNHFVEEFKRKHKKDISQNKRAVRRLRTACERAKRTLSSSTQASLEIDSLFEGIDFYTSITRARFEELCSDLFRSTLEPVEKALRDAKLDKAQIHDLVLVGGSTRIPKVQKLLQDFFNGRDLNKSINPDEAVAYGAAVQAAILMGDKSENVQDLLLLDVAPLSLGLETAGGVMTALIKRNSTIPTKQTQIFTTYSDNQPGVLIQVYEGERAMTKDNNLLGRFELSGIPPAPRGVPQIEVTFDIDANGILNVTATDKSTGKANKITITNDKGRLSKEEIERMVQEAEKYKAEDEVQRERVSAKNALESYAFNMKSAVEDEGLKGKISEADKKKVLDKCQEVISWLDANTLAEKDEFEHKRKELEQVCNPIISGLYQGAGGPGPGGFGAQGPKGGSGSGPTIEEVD

[9] = target: T2, Dual specificity protein phosphatase 6 (Rattus norvegicus, UniProt Q64346)
T2 sequence (Q64346 whole entry): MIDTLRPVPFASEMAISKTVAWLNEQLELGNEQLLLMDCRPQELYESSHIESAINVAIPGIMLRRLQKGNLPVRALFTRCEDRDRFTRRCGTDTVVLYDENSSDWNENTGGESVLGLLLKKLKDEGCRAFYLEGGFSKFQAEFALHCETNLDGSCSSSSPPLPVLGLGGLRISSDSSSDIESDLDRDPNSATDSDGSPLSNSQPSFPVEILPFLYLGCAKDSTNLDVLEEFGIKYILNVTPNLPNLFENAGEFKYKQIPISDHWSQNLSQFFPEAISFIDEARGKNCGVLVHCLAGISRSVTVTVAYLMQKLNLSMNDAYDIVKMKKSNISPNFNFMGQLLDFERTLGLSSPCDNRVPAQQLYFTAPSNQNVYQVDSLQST

[10] = target: T2, Dual specificity protein phosphatase 6; format: functional
HEK293 [11] = assay: cells; format: functional, cell-based; settings: Homo sapiens
[12] = target: T3, Nuclear receptor subfamily 0 group B member 1 (Homo sapiens, UniProt P51843); assay: Luminescence-based cell-based high throughput dose response assay for inhibitors of the orphan nuclear receptor subfamily 0, group B, member 1 (DAX1; NR0B1). [Related pubchem assays (depositor defined):AID504766, AID504790]; format: functional
T3 sequence (P51843 whole entry): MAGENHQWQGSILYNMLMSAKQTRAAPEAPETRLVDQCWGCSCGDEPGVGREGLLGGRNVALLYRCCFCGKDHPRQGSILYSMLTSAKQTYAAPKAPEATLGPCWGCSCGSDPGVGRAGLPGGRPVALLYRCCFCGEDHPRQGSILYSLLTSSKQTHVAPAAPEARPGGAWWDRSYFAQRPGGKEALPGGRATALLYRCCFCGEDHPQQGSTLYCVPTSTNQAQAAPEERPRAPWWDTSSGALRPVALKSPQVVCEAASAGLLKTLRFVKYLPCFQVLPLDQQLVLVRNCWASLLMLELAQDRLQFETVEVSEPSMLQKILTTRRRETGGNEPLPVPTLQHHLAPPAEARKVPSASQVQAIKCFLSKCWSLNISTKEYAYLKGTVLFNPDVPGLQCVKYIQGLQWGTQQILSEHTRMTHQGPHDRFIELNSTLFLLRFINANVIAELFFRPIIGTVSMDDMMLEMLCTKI

[13] = target: Beta-2 adrenergic receptor (Homo sapiens, UniProt P07550); assay: ADRB2 activation measured by internalization – cell-based, FAP fluorogen, flow cytometry, cherry pick 1, dose response (AID 588763); format: functional
Chain of Beta-2 adrenergic receptor (P07550 whole entry): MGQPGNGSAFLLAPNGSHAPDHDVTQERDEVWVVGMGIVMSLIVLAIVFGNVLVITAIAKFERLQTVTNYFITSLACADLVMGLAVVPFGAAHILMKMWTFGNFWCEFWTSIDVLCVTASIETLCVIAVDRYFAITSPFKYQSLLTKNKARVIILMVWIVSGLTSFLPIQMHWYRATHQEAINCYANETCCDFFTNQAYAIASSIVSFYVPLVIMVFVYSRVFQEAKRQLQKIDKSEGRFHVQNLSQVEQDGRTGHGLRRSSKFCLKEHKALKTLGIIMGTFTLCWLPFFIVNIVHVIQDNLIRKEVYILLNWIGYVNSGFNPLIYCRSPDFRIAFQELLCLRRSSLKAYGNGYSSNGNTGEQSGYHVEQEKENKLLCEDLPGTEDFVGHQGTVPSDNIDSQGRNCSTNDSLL

A-375 [14] = assay: MITF: Counter assay: A375 proliferation Measured in Cell-Based System Using Plate Reader - 2084-03_Inhibitor_Dose_DryPowder_Activity. [Related pubchem assays (depositor defined):AID488944]; format: functional; settings: Homo sapiens
A-375 [15] = assay: proliferation inhibition in MITF-low A375 cells – cell-based, cherry-pick samples, set 2, counter-screen for MITF modulator project, dose response (AID 540335); format: functional; settings: Homo sapiens
[16] = target: Dual specificity protein kinase CLK1 (Homo sapiens, UniProt P49759); assay: inhibition of human CLK1 activity – biochemical, cherry-picked samples, selectivity assay for Dyrk1A inhibitor project, dose response (AID 588811)
Chain of Dual specificity protein kinase CLK1 (P49759 whole entry): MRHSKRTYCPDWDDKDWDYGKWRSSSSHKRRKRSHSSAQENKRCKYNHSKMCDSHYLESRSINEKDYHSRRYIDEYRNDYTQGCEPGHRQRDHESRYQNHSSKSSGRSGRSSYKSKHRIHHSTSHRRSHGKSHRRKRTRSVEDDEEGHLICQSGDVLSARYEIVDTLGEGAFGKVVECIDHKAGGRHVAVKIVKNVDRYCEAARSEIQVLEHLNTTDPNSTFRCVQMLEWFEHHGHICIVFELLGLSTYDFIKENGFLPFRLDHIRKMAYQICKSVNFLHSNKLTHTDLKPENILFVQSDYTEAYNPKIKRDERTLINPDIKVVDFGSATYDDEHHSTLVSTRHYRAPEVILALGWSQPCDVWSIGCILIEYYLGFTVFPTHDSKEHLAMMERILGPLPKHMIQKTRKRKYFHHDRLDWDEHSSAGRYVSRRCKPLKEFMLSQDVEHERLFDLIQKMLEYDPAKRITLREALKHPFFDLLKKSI

[17] = target: Dual specificity tyrosine-phosphorylation-regulated kinase 1A (Rattus norvegicus, UniProt Q63470); format: biochemical, Homo sapiens
[18] = viability loss in Vero cells – cytotoxicity control for Vif-APOBEC3G degradation inhibitor project, dose response (AID 1117358); format: functional; settings: Vero
Phospholipase D2 [19] = target: T4, Phospholipase D2 (Homo sapiens, UniProt O14939); assay: cellular phospholipase D2 inhibition IC50 – cell-based, dose response (AID 602147); format: functional;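 note: cellular assay in HEK293 cells overexpressing GFP-tagged PLD2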
T4 sequence (O14939 whole entry): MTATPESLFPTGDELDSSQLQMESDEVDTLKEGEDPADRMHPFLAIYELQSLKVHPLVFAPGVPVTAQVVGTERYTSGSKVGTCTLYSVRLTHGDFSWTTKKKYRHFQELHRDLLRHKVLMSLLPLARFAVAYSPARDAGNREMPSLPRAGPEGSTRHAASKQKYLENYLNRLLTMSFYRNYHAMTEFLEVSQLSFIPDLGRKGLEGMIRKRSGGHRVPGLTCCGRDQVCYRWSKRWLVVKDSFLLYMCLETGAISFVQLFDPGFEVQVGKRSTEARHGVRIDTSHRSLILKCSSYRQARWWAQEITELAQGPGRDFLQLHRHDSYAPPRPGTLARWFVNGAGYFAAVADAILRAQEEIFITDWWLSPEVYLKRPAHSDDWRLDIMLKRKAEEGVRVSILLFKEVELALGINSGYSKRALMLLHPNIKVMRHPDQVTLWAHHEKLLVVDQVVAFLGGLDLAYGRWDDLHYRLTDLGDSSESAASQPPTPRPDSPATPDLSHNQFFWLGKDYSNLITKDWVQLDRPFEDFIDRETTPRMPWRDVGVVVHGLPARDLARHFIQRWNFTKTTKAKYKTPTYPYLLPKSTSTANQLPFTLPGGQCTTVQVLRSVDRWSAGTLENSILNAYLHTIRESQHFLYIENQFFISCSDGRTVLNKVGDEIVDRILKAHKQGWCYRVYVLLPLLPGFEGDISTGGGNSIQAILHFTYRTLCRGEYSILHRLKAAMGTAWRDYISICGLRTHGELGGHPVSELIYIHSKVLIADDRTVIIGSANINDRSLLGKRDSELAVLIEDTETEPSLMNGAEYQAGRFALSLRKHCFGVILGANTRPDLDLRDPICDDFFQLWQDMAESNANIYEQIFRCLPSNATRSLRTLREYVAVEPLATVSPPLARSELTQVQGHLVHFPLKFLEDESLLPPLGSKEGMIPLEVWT

Phospholipase D1 = Phospholipase D1 (Homo sapiens, UniProt Q13393); assay: PLD1 purified enzyme concentration response. [Related pubchem assays (depositor defined):AID588854]; format: functional
Chain of Phospholipase D1 (Q13393 whole entry): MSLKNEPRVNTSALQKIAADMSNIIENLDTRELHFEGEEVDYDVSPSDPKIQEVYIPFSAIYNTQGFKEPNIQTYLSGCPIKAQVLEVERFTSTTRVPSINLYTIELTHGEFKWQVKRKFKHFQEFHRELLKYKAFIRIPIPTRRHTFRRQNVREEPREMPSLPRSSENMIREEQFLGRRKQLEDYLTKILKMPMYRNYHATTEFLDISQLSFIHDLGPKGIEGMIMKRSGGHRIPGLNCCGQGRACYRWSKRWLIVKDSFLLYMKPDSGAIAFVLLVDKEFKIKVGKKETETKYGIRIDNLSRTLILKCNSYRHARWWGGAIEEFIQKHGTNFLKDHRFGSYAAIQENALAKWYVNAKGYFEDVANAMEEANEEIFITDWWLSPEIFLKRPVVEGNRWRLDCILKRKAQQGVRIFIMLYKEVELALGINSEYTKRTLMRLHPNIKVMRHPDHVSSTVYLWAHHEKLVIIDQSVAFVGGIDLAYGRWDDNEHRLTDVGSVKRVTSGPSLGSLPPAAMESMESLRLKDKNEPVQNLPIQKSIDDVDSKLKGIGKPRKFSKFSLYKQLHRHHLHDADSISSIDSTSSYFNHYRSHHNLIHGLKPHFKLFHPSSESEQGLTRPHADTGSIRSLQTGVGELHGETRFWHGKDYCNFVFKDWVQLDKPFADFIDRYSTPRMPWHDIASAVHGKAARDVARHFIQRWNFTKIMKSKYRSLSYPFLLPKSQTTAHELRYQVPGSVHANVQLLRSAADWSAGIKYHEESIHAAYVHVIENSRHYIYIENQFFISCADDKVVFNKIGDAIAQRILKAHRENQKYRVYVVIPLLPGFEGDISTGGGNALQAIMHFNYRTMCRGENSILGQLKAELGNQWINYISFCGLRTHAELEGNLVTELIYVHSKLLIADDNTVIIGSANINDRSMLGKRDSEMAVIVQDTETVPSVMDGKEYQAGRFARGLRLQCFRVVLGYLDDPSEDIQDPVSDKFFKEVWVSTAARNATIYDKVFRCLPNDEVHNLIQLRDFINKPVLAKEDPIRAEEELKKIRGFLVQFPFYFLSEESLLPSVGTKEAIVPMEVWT

Phospholipase D2 [20] = target: T4, Phospholipase D2; assay: PLD2 purified enzyme concentration response. [Related pubchem assays (depositor defined):AID588854]; format: functional
Jurkat = assay: SAR Analysis of small molecule inhibitors of […] specific antigen receptor-induced NF-kB activation in a Jurkat cell line using a luminescence assay - Set 3. [Related pubchem assays (depositor defined):AID435022, AID435025, AID465]; format: functional, cell-based; settings: Homo sapiens
HEK293 [21] = assay: SAR Analysis of small molecule inhibitors of B-cell specific antigen receptor-induced NF-kB activation in a HEK-293T cell line using a luminescence assay - Set 2. [Related pubchem assays (depositor defined):AID435022, AID435025, AID489021]; format: functional, cell-based; settings: Homo sapiens
HEK293 [22] = assay: HEK293T cell viability loss, resazurin readout – resazurin fluorescence, cytotoxicity control for NF-kB activator project, SAR follow-up (AID 493251); format: functional, cell-based; settings: Homo sapiens
Hexokinase-1 = target: T5, Hexokinase-1 (Homo sapiens, UniProt P19367); assay: SAR analysis of small molecule inhibitors of hexokinase domain containing I (HKDC1) in the hexokinase 1 selectivity assay. [Related pubchem assays (depositor defined):AID493160, AID493190]; format: functional
T5 sequence (P19367 whole entry): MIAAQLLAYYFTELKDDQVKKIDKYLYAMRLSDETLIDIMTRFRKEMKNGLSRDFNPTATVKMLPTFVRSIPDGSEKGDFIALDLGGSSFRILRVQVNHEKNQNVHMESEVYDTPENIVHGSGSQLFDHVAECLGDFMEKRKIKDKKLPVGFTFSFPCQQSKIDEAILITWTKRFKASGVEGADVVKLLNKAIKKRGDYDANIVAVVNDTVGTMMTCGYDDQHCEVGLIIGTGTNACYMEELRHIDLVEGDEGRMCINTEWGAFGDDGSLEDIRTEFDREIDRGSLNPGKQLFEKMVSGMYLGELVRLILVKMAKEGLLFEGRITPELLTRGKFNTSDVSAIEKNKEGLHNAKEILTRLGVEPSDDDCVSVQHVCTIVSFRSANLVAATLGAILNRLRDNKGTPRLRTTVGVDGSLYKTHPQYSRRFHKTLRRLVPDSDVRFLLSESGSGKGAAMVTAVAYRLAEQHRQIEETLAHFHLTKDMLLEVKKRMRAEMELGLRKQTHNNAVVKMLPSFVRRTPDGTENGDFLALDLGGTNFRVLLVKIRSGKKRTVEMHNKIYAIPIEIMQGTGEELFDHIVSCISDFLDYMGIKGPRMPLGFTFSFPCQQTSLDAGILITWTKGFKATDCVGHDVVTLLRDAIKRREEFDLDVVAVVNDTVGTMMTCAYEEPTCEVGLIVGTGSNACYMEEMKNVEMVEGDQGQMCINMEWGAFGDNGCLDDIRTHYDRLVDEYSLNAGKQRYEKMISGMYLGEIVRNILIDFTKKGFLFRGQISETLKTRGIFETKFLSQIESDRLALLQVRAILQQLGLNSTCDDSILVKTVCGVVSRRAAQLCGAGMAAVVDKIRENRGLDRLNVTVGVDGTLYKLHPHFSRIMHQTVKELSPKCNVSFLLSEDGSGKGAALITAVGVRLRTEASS

Hexokinase HKDC1 = target: T6, Hexokinase HKDC1 (Homo sapiens, UniProt Q2TB90); assay: SAR analysis of small molecule inhibitors of hexokinase domain containing I (HKDC1). [Related pubchem assays (depositor defined):AID493160, AID493190]; format: functional
T6 sequence (Q2TB90 whole entry): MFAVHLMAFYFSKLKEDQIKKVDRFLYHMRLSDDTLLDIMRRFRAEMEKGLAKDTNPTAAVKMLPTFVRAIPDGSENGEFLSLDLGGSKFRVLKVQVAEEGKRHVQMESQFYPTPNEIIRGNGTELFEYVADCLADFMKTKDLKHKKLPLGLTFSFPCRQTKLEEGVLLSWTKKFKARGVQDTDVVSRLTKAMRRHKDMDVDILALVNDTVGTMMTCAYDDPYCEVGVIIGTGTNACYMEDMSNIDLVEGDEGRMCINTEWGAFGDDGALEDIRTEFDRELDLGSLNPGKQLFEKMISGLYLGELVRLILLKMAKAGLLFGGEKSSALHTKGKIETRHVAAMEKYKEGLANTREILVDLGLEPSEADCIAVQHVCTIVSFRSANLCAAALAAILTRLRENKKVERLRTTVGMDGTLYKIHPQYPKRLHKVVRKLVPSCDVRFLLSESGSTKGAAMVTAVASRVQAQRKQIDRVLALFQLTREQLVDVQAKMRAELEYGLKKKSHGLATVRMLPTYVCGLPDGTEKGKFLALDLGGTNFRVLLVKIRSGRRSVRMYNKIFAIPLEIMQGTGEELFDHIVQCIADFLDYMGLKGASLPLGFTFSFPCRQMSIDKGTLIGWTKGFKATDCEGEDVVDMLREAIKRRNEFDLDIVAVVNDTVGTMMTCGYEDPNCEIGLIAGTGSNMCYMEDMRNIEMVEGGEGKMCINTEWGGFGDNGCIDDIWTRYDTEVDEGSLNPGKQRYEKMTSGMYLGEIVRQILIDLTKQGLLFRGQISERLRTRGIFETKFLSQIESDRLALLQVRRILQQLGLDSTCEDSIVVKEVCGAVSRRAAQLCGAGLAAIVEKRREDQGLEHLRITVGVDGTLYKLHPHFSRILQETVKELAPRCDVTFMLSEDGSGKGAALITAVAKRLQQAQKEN

Compound: O=C(NNc1c2ccccc2nc2ccccc12)c1ccccc1O
- AC50 [1]: 18.3 µM (active)
- AC50 [2]: 22.8 µM (active)
- AC50 [3]: 0.08 µM (active)
- IC50 [4]: 60.8 µM (inactive)

- IC50 [5]: > 100 µM (not active)
- IC50 [6]: > 100 µM (not active)
- IC50 [7]: > 100 µM (not active)
- IC50 [8]: > 100 µM (not active)
- IC50 [9]: > 100 µM (inactive)
- IC50 [10]: > 100 µM (inactive)
Compound: Cc1cc(I)cc2c1NC(C(=O)O)C1CC=CC21 (stereo unspecified)

Compound: O=C(CSc1nnc(NC2CCCCC2)s1)Nc1ccc2c(c1)C(=O)c1ccccc1C2=O
- IC50 (HEK293 [11]): > 67.5 µM (inactive)
- IC50 [12]: > 67.5 µM (inactive)

- EC50 [13]: 0.0393 µM (active)
Compound: O=C(CCCCCn1c(=O)[nH]c2ccsc2c1=O)NCc1ccc2c(c1)OCO2

Compound: CC(=O)c1ccc(N/C=C/C(=O)c2ccc(Br)cc2)cc1
- AC50 (A-375 [14]): > 35 µM (active)
- AC50 (A-375 [15]): > 35 µM (active)

- AC50 [16]: 2.03 µM (active)
- AC50 [17]: 2.01 µM (active)
Compound: O=C(Nc1nc2ccc(Cl)cc2s1)C1CCCO1 (stereo unspecified)
- CC50 [18]: > 40 µM (active)

Compound: O=C(NCCN1CCC2(CC1)C(=O)NCN2c1ccc(F)cc1)c1cc2cc(F)ccc2[nH]1
- IC50 (Phospholipase D2 [19]): 0.027 µM (active)
- IC50 (Phospholipase D1): 5.5 µM (active)
- IC50 (Phospholipase D2 [20]): 0.066 µM (active)

Compound: CCOc1ccc(-c2nc(CSCC(=O)NCc3ccccc3)c(C)o2)cc1
- IC50 (Jurkat): > 80 µM (inactive)
- IC50 (HEK293 [21]): 21.6 µM (inactive)
- IC50 (HEK293 [22]): 49.3 µM (inactive)

Compound: O=c1c2ccccc2nc(/C=C/c2ccccc2)n1-c1ccccc1
- IC50 (Hexokinase-1): > 80 µM (inactive)
- IC50 (Hexokinase HKDC1): > 80 µM (inactive)
